Measurements reported in patent publication US20170210738A1, “GLUCOSE TRANSPORT INHIBITORS” (Bayer Pharma Aktiengesellschaft, priority 2014, published 2017).

Target: T1, GLUT1 (Homo sapiens, UniProt P11166)
T1 construct: endogenous in cells; host or cells: DLD1 or CHO-K1
T1 sequence (P11166 1-492): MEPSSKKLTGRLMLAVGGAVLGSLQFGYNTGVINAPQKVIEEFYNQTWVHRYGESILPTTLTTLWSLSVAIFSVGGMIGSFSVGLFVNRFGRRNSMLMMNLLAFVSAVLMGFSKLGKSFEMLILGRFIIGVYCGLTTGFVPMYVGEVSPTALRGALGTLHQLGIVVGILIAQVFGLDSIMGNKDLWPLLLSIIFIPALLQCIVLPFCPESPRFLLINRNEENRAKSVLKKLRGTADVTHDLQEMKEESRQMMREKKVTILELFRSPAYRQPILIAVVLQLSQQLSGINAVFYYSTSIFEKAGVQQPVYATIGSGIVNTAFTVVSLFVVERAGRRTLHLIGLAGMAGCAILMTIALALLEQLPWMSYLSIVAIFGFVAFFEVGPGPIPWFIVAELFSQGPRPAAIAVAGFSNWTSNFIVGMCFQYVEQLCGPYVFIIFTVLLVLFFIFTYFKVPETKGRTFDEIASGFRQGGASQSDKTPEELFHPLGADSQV
Assay: Indirect measurement of GLUT activity by quantification of intracellular ATP levels: glucose induced ATP increase (GLUT1 inhibition)
Assay type: cell-based
Conditions: DLD1 cells; 1 mM glucose, 1 uM Rotenone, 15 min; CellTiter-Glo ATP levels; IC50 values standardized to cytochalasin B IC50 values; read-out: IC50 regarding glucose induced ATP increase (GLUT1 inhibition)
Description: (§1) Indirect Measurement of GLUT Activity by Quantification of Intracellular ATP Levels
(§2) It is well known that a combination of small-molecule inhibitors of mitochondrial electron transport chain and glucose catabolism synergistically suppress ATP production and impair cellular viability (Ulanovskaya et al., 2008, 2011; Liu, et al. 2001). We therefore used DLD1 or CHO-K1 cells in combination with an oxidative phosphorylation inhibitor to identify GLUT inhibitors. Cell lines were maintained in DMEM medium supplemented with 10% FCS and 1% Penicillin-Streptomycin solution and 2% Glutamax. The cells were treated with trypsin and seeded into 384 plates at a density of 4000 cells/well. The cells were then cultured overnight in glucose free media containing 1% FCS to reduce intracellular ATP levels. After 24 h the cells were incubated at 37° C. containing the appropriate glucose or in case of GLUT2 fructose concentration (1 mM and 30 mM respectively) with or without compounds and 1 uM Rotenone for 15 min. The CellTiter-Glo® Luminescent Cell Viability Assay from Promega was then used to measure ATP levels. Compounds able to reduce the ATP levels within 15 min of glucose application were considered to be glucose uptake inhibitors.

| Compound | IC50 |
| --- | --- |
| Cc1ccc2nc(C)cc(C(=O)Nc3cnn(Cc4ccc(F)cc4)c3C)c2c1 [Example 1, N-[1-(4-fluorobenzyl)-5-methyl-1H-pyrazol-4-yl]-2,6-dimethylquinoline-4-carboxamide] | 9.4 nM |
| COc1cc(C(=O)Nc2cnn(Cc3ccc(C#N)cc3)c2C)c2ccccc2n1 [Example 10, N-[1-(4-cyanobenzyl)-5-methyl-1H-pyrazol-4-yl]-2-methoxyquinoline-4-carboxamide] | 87 nM |
| CNC(=O)c1nc(Cn2ncc(NC(=O)c3cc(C(N)=O)nc4ccccc34)c2C)no1 [Example 36, N^4-(5-methyl-1-{[5-(methylcarbamoyl)-1,2,4-oxadiazol-3-yl]methyl}-1H-pyrazol-4-yl)quinoline-2,4-dicarboxamide] | 2220 nM |
| CCc1noc(Cn2ncc(NC(=O)c3cc(C(N)=O)nc4ccccc34)c2C)n1 [Example 37, N^4-{1-[(3-ethyl-1,2,4-oxadiazol-5-yl)methyl]-5-methyl-1H-pyrazol-4-yl}quinoline-2,4-dicarboxamide] | 1920 nM |
| CCS(=O)(=O)N1CCC(Cn2ncc(NC(=O)c3cc(C(F)(F)F)nc4ccc(Br)cc34)c2C)CC1 [Example 38, 6-bromo-N-(1-{[1-(ethylsulfonyl)piperidin-4-yl]methyl}-5-methyl-1H-pyrazol-4-yl)-2-(trifluoromethyl)quinoline-4-carboxamide] | 615 nM |
| Cc1nc(Cn2ncc(NC(=O)c3cc(C(N)=O)nc4ccccc34)c2C)cs1 [Example 39, N^4-{5-methyl-1-[(2-methyl-1,3-thiazol-4-yl)methyl]-1H-pyrazol-4-yl}quinoline-2,4-dicarboxamide] | 517 nM |
| CNC(=O)c1nc(Cn2ncc(NC(=O)c3cc(C(F)(F)F)nc4ccc(Br)cc34)c2C)no1 [Example 40, 6-bromo-N-(5-methyl-1-{[5-(methylcarbamoyl)-1,2,4-oxadiazol-3-yl]methyl}-1H-pyrazol-4-yl)-2-(trifluoromethyl)quinoline-4-carboxamide] | 456 nM |
| Cc1nc(Cn2ncc(NC(=O)c3cc(C(F)(F)F)nc4ccc(Br)cc34)c2C)cs1 [Example 41, 6-bromo-N-{5-methyl-1-[(2-methyl-1,3-thiazol-4-yl)methyl]-1H-pyrazol-4-yl}-2-(trifluoromethyl)quinoline-4-carboxamide] | 284 nM |
| Cc1cc(Cn2ncc(NC(=O)c3cc(C(F)(F)F)nc4ccc(Br)cc34)c2C)no1 [Example 42, 6-bromo-N-{5-methyl-1-[(5-methyl-1,2-oxazol-3-yl)methyl]-1H-pyrazol-4-yl}-2-(trifluoromethyl)quinoline-4-carboxamide] | 1130 nM |
| CCS(=O)(=O)N1CCC(Cn2ncc(NC(=O)c3cc(C(N)=O)nc4ccccc34)c2C)CC1 [Example 43, N^4-(1-{[1-(ethylsulfonyl)piperidin-4-yl]methyl}-5-methyl-1H-pyrazol-4-yl)quinoline-2,4-dicarboxamide] | 396 nM |
| Cc1c(NC(=O)c2cc(C(F)(F)F)nc3ccc(Br)cc23)cnn1Cc1ccn(C)n1 [Example 44, 6-bromo-N-{5-methyl-1-[(1-methyl-1H-pyrazol-3-yl)methyl]-1H-pyrazol-4-yl}-2-(trifluoromethyl)quinoline-4-carboxamide] | 531 nM |
| Cc1cc(Cn2ncc(NC(=O)c3cc(C(N)=O)nc4ccccc34)c2C)no1 [Example 45, N^4-{5-methyl-1-[(5-methyl-1,2-oxazol-3-yl)methyl]-1H-pyrazol-4-yl}quinoline-2,4-dicarboxamide] | 222 nM |

Target: T2, GLUT2 (Homo sapiens, UniProt P11168)
T2 construct: host or cells: DLD1 or CHO-K1
T2 sequence (P11168 1-524): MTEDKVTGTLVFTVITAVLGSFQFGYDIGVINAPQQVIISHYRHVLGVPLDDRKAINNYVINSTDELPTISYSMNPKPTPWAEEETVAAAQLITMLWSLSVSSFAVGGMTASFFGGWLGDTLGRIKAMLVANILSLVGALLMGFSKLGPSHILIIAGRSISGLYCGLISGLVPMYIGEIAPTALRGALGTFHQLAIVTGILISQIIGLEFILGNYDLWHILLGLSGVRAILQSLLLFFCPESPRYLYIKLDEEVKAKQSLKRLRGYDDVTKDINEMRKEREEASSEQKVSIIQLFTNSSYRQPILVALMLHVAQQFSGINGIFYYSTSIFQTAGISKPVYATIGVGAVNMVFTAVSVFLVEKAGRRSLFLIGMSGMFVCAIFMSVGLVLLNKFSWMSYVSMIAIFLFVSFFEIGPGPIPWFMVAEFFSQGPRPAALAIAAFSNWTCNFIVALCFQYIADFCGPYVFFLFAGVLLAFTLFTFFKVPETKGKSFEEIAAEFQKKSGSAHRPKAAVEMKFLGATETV
Assay: Indirect measurement of GLUT activity by quantification of intracellular ATP levels: fructose induced ATP increase (GLUT2 inhibition)
Assay type: cell-based
Conditions: 30 mM fructose, 1 uM Rotenone, 15 min; CellTiter-Glo ATP levels; DLD1 or CHO-K1 cells; read-out: IC50 regarding fructose induced ATP increase (GLUT2 inhibition)
Description: as §1, §2

| Compound | IC50 |
| --- | --- |
| Cc1ccc2nc(C)cc(C(=O)Nc3cnn(Cc4ccc(F)cc4)c3C)c2c1 [Example 1, N-[1-(4-fluorobenzyl)-5-methyl-1H-pyrazol-4-yl]-2,6-dimethylquinoline-4-carboxamide] | 5990 nM |
| COc1cc(C(=O)Nc2cnn(Cc3ccc(C#N)cc3)c2C)c2ccccc2n1 [Example 10, N-[1-(4-cyanobenzyl)-5-methyl-1H-pyrazol-4-yl]-2-methoxyquinoline-4-carboxamide] | 1650 nM |
